According to US20260092071A1, “COMPOUNDS AND COMPOSITIONS AS SMARCA2/4 DEGRADERS AND USES THEREOF” (REGENTS OF THE UNIVERSITY OF MICHIGAN, priority 2022, published 2026):

Experiments:
SMARCA2 = SMARCA2 (Homo sapiens, UniProt P51531); experiment: HiBit assay in engineered HT1080 CRISPR knock-in cell, 6 hrs (B series), SMARCA2; type: cell-based; details: 6 hrs incubation; for DC50: read-out: SMARC A2 HT1080 HiBit DC50; for Dmax: HT-1080, HT1080 CRISPR knock-in cells, read-out: SMARC A2 HT1080 HiBit Dmax (%)
Chain of SMARCA2 (P51531 whole entry): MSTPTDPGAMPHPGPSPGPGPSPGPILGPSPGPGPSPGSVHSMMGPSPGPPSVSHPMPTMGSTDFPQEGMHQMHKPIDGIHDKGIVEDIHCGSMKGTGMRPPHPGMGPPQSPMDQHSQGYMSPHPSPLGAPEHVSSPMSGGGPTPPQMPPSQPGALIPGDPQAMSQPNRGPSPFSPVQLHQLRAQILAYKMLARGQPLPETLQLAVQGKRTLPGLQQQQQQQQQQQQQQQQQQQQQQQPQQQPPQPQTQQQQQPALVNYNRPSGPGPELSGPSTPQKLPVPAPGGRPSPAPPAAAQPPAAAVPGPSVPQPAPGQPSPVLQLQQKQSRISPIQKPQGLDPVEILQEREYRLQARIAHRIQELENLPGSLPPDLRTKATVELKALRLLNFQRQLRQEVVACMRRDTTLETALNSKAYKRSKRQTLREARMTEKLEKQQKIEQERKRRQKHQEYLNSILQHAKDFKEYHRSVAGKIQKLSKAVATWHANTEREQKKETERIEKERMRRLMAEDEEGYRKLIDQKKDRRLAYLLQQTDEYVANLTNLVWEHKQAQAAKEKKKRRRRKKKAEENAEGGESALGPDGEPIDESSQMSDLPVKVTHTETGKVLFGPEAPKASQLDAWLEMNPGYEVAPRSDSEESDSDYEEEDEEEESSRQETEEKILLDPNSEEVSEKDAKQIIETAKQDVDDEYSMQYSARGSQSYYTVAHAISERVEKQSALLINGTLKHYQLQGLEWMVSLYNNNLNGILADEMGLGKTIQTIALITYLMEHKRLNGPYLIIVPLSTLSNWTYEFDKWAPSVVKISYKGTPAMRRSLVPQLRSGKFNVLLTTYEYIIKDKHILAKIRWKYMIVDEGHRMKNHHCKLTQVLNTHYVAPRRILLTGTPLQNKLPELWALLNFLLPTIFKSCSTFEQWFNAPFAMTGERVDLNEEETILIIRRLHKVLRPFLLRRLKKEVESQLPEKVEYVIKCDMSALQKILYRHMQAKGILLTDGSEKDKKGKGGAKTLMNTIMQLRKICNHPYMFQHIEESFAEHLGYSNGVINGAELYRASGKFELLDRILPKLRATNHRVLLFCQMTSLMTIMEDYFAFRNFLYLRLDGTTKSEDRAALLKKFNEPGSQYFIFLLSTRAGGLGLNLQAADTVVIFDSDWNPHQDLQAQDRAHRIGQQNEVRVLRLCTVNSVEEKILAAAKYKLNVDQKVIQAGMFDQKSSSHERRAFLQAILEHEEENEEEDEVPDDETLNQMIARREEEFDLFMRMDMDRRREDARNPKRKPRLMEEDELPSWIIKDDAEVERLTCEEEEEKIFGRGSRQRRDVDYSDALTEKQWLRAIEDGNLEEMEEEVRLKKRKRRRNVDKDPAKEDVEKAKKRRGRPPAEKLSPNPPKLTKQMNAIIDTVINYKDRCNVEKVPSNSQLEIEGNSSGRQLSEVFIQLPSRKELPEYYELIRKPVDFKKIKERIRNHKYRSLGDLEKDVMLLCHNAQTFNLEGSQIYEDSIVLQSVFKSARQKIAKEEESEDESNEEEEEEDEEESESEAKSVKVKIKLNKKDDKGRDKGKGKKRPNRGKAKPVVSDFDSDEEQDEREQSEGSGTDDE
Summary of the method: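 Using a 6 hr treatment window at 37° C and 5% CO2, tagged HT1080 knock-in cells were exposed to test compounds with DMSO vehicle held at 0.1%. Signal came from lytic LgBiT/substrate reagent added after incubation, with control wells lacking LgBiT, and was read as luminescence.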

SMARCA4 = SMARCA4 (Homo sapiens, UniProt P51532); experiment: HiBit assay in engineered HT1080 CRISPR knock-in cell, 6 hrs (B series), SMARCA4; type: cell-based; details: 6 hrs incubation; for DC50: read-out: SMARC A4 HT1080 HiBit DC50; for Dmax: HT-1080, HT1080 CRISPR knock-in cells, read-out: SMARC A4 HT1080 HiBit Dmax(%)
Chain of SMARCA4 (P51532 whole entry): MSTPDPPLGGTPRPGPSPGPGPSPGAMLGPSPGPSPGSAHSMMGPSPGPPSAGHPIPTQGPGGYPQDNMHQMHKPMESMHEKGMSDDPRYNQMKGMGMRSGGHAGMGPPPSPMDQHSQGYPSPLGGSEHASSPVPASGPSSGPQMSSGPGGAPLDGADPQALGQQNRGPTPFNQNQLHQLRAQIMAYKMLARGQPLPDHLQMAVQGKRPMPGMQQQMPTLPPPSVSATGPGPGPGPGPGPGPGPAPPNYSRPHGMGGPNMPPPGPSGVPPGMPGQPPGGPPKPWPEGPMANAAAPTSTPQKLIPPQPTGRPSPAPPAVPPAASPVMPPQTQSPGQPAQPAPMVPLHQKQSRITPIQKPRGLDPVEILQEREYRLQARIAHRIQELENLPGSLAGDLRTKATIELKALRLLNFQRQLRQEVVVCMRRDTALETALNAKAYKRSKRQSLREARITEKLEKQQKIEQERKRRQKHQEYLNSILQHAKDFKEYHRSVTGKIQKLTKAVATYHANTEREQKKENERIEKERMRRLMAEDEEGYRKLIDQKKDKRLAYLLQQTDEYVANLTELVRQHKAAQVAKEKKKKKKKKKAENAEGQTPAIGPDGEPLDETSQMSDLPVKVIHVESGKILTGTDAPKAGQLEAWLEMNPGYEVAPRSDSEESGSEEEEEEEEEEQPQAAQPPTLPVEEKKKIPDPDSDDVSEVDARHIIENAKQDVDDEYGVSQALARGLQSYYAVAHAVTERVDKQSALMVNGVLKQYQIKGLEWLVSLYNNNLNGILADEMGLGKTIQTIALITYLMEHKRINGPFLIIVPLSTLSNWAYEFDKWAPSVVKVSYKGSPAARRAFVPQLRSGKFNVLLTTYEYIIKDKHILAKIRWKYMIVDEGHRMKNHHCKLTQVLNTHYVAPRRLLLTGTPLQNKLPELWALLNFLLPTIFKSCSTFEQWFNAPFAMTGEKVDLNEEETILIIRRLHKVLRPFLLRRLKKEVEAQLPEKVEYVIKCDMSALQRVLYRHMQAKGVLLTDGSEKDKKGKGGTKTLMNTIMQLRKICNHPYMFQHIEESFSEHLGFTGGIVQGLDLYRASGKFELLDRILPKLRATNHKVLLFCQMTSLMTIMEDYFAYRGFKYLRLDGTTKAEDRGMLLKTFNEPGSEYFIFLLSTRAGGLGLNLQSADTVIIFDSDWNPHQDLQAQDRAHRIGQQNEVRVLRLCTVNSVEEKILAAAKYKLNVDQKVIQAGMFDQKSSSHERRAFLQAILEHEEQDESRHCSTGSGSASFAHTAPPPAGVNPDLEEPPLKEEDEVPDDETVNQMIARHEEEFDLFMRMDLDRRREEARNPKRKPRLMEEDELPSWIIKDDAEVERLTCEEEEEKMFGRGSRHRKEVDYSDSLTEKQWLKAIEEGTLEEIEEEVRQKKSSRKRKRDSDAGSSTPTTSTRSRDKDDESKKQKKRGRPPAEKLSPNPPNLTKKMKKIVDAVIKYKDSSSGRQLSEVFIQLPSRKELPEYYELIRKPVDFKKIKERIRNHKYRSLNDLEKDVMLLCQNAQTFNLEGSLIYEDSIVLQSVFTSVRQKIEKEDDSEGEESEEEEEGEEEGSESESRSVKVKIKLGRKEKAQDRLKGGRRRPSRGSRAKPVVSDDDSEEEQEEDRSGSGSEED
Summary of the method: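 Compounds were dispensed first, then HT1080 knock-in cells added and incubated for 6 hrs at 37° C. Next, detection reagent containing LgBiT and lytic substrate was added. Plates were shaken 10 min and centrifuged, and luminescence was measured.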

| Compound | DC50 (SMARCA2; HT1080 CRISPR knock-in cells) [nM] | Dmax (SMARCA2) [%] | DC50 (SMARCA4; HT1080 CRISPR knock-in cells) [nM] | Dmax (SMARCA4) [%] | SMARC A2 HT1080 HiBit Dmax (%) (SMARCA2; HT1080 CRISPR knock-in cells) | SMARC A4 HT1080 HiBit Dmax(%) (SMARCA4; HT1080 CRISPR knock-in cells) |
| --- | --- | --- | --- | --- | --- | --- |
| Cc1ncsc1-c1ccc([C@H](C)NC(=O)[C@@H]2C[C@@H](O)CN2C(=O)[C@@H](c2cc(OCCCn3cc(-c4ccc5c(c4)-n4c(nc(=O)c6c(Cl)cccc64)C5(C)C)cn3)no2)C(C)C)cc1 [Compound B72, (2S,4R)-1-((R)-2-(3-(3-(4-(4-chloro-7,7-dimethyl-5-oxo-5,7-dihydroindolo[1,2-a]quinazolin-10-yl)-1H-pyrazol-1-yl)propoxy)isoxazol-5-yl)-3-methylbutanoyl)-4-hydroxy-N-((S)-1-(4-(4-methylthiazol-5-yl)phenyl)ethyl)pyrrolidine-2-carboxamide] | < 100 | 50 to 69 | < 100 | < 50 |  |  |
| Cc1ncsc1-c1ccc([C@H](C)NC(=O)[C@@H]2C[C@@H](O)CN2C(=O)[C@H](C(C)C)n2cc(CCCCN3CCC(c4ccc5c(c4)-n4c(nc(=O)c6c(Cl)cccc64)C5(C)C)CC3)nn2)cc1 [Compound B73, (2S,4R)-1-((S)-2-(4-(4-(4-(4-chloro-7,7-dimethyl-5-oxo-5,7-dihydroindolo[1,2-a]quinazolin-10-yl)piperidin-1-yl)butyl)-1H-1,2,3-triazol-1-yl)-3-methylbutanoyl)-4-hydroxy-N-((S)-1-(4-(4-methylthiazol-5-yl)phenyl)ethyl)pyrrolidine-2-carboxamide] | < 100 | > 90 | 100 to 500 | 70 to 90 |  |  |
| CC(C)C(C(=O)N1C[C@H](O)C[C@H]1C(=O)N[C@@H](C)c1ccc(-c2ncnn2C)cc1)c1cc(OCCN2CCC(c3ccc4c(c3)C(C)(C)c3nc(=O)c5c(Cl)cccc5n3-4)CC2)no1 (stereo partly drawn) [Compound B74, (2S,4R)-1-(2-(3-(2-(4-(4-chloro-7,7-dimethyl-5-oxo-5,7-dihydroindolo[1,2-a]quinazolin-9-yl)piperidin-1-yl)ethoxy)isoxazol-5-yl)-3-methylbutanoyl)-4-hydroxy-N-((S)-1-(4-(1-methyl-1H-1,2,4-triazol-5-yl)phenyl)ethyl)pyrrolidine-2-carboxamide] | 100 to 500 | < 50 | > 1000 | < 50 |  |  |
| CC(C)C(C(=O)N1C[C@H](O)C[C@H]1C(=O)N[C@@H](C)c1ccc(-c2ncnn2C)cc1)c1cc(OCCN2CCC(c3ccc4c(c3)C(C)(C)c3nc(=O)c5c(Cl)cccc5n3-4)CC2)no1 (stereo partly drawn) [Compound B75, (2S,4R)-1-(2-(3-(2-(4-(4-chloro-7,7-dimethyl-5-oxo-5,7-dihydroindolo[1,2-a]quinazolin-9-yl)piperidin-1-yl)ethoxy)isoxazol-5-yl)-3-methylbutanoyl)-4-hydroxy-N-((S)-1-(4-(1-methyl-1H-1,2,4-triazol-5-yl)phenyl)ethyl)pyrrolidine-2-carboxamide] | 100 to 500 |  | 100 to 500 |  | B (B (70-90% degradation)) | D (D (<50% degradation)) |
| Cc1ncsc1-c1ccc([C@H](C)NC(=O)[C@@H]2C[C@@H](O)CN2C(=O)[C@@H](NC(=O)C2CCC(CN3CCC(c4ccc5c(c4)C(C)(C(F)(F)F)c4nc(=O)c6c(Cl)cccc6n4-5)CC3)CC2)C(C)(C)C)cc1 (stereo partly drawn) [Compound B76, (2S,4R)-1-((2S)-2-((1r,4S)-4-((4-(4-chloro-7-methyl-5-oxo-7-(trifluoromethyl)-5,7-dihydroindolo[1,2-a]quinazolin-9-yl)piperidin-1-yl)methyl)cyclohexane-1-carboxamido)-3,3-dimethylbutanoyl)-4-hydroxy-N-((S)-1-(4-(4-methylthiazol-5-yl)phenyl)ethyl)pyrrolidine-2-carboxamide] | 100 to 500 | 70 to 90 | 100 to 500 | < 50 |  |  |
